# Entries after “also recorded” stand apart in the source; their conditions may differ.
# Columns and labels:
# Akt = assay: Western blot of phospho-Akt (Ser473); assay type: cell-based, human
# Description: (§1) Western blotting—Confluent fetal human cardiac fibroblast cultures were exposed with or without the treatment specified for the indicated time points. At the end of each experiment cells were lysed using an RIPA buffer (50 mM Tris.HCl, pH 7.4; 150 mM NaCl; 1 mM EDTA; 10 mM NaF; 1% Triton X-100; 0.1% SDS; 1% Na deoxycholate) containing a cocktail of antiproteases (20 μg/ml leupeptin, 10 μg/ml aprotinin, 0.1 mM PMSF, 1 mM DTT) and antiphosphates ([…] orthovanadate, 2 μg/ml pepstatin). Then 40-60 μg of protein extract was resuspended in sample buffer (0.5 M Tris.HCl, pH 6.8; 10% SDS; 10% glycerol; 4% 2-β-mercaptoethanol; and 0.05% bromophenol blue), and the mixture was boiled for 5 minutes. Protein lysates were resolved by precast SDS-PAGE gel (4-12% gradient), transferred to nitrocellulose membranes, blocked for an hour, and then immunoblotted with polyclonal anti-MR antibody, anti-phospho-c-Src (Tyr416) antibody, anti-phospho-Akt (Ser473) antibody, anti-Gα13 (goat) antibody, anti-SCAP2 antibody, or with buffer (TBS-T) at 4° C. overnight. All blots were then incubated with the appropriate HRP-conjugated secondary antibodies for an hour and examined using the enhanced chemiluminescence detection system. Blots were stripped and reprobed using specified antibodies. […] The degree of expression or phosphorylation of immunodetected signaling molecules was measured by densitometry.
# c-Src = assay: Western blot of phospho-c-Src (Tyr416); assay type: cell-based, human
# Description: as §1
# [1] = tested on: human fetal cardiac fibroblasts; assay: Immunostaining of elastic fibers with anti-elastin antibody; assay type: cell-based; settings: 10 μM PP2, 1 hour pretreatment, 50 nM aldosterone
# Description: (§2) At the end of the 72-hour incubation period with the indicated treatment, confluent cultures were either fixed in ice-cold 100% methanol at −20° C. (for elastin staining) or in 4% paraformaldehyde at room temperature (for collagen staining) for 30 minutes and blocked with 1% normal goat serum for 1 hour at room temperature. The cultures were then incubated for 1 hour with 10 μg/ml polyclonal antibody to tropoelastin or with 10 μg/ml polyclonal antibody to collagen type I. All cultures were then incubated for an additional hour with fluorescein-conjugated goat anti-rabbit or with fluorescein-conjugated rabbit anti-goat secondary antibodies to detect elastin and collagen type I staining, respectively. Nuclei were counterstained with propidium iodide. Secondary antibody alone was used as a control. All of the cultures were then mounted in Elvanol and examined with a Nikon Eclipse E1000 microscope attached to a cooled charge-coupled device camera (Retiga EX; QImaging, Surrey, BC, Canada) and a computer-generated video analysis system (Image-Pro Plus software; Media Cybernetics, Silver Spring, Md.).
# Immunostaining—At the end of the 72-hour incubation period with the indicated treatment, confluent cultures were fixed in cold 100% methanol at −20° C. […]
# [2] = tested on: human fetal cardiac fibroblasts; assay: One-step RT-PCR of elastin mRNA in cardiac fibroblast cultures; assay type: cell-based
# [3] = tested on: human fetal cardiac fibroblasts; assay: Quantitative assay of [3H]valine-labeled insoluble elastin; assay type: cell-based; settings: 72 hours
# IGF-IR = IGF-IR immunoprecipitation and anti-phosphotyrosine blot; assay type: cell-based, human
# Description: Cells were lysed using an radioimmunoprecipitation assay buffer [50 mmol/L Tris-HCl, pH 7.4, 150 mmol/L NaCl, 1 mmol/L ethylenediamine tetraacetic acid, 10 mmol/L NaF, 1% Triton X-100, 0.1% sodium dodecyl sulfate, 1% sodium deoxycholate containing a cocktail of antiproteases (20 μg/ml leupeptin, 10 μg/ml aprotinin, 0.1 mmol/L phenylmethylsulfonyl fluoride, and 1 mmol/L dithiothreitol) and antiphosphates ([…] orthovanadate and 2 μg/ml pepstatin)], and 300 μg of protein extract was incubated with an antibody against IGF-IRβ for 1 hour at 4° C., followed by the addition of 4% protein A-beaded agarose left overnight, as previously described. The resulting protein-antibody conjugate was centrifuged at 4° C. and washed four times with phosphate-buffered saline. The final pellet was resuspended in sample buffer (0.5 mol/L Tris-HCl, pH 6.8, 10% sodium dodecyl sulfate, 10% glycerol, 4% 2-B-mercaptoethanol, and 0.05% bromphenol blue), and the mixture was boiled for 5 minutes. Proteins were resolved by 12% sodium dodecyl sulfate-polyacrylamide gel electrophoresis, transferred to nitrocellulose membranes, and then immunoblotted with anti-p-Tyr or anti-IGF-IR antibodies. The degree of expression or phosphorylation of immunodetected signaling molecules was measured by densitometry.
# At the end of each experiment the cells were lysed as specified above, and 300 μg of protein extract were then precleared for 1 hour with normal rabbit agarose conjugated-IgG at 4° C. and incubated with rabbit polyclonal antibodies against IGF-IR-β, c-Src, or with Gα13 for 1 hour at 4° C., followed by the addition of 4% protein A-beaded agarose and left overnight. The resulting protein-antibody conjugate was centrifuged at 4° C. and washed four times with PBS. The final pellet was resuspended in sample buffer, and the proteins were resolved. Following immunoprecipitation of IGF-IR-β, the membrane was immunoblotted using monoclonal anti-p-Tyr antibody, stripped, and reprobed using anti-IGF-IR-β. Following immunoprecipitation of c-Src, the membranes were immunoblotted using polyclonal goat antibodies against anti-Gα13, while those immunoprecipitated with anti-Gα13 were developed with monoclonal anti-c-Src antibody. Blots were stripped and re-probed for equal loading.
# The degree of expression or phosphorylation of immunodetected signaling molecules was measured by densitometry.
# [4] = tested on: human fetal cardiac fibroblasts; assay: Cytotoxic effects of supraphysiological aldosterone in cardiac fibroblast cultures; assay type: cell-based; settings: aldosterone 100 nmol/L and 1 μmol/L
# [5] = tested on: adult human cardiac fibroblasts; assay: One-step RT-PCR of elastin mRNA in adult cardiac fibroblasts; assay type: cell-based; settings: 1 to 50 nmol/L, 24 hours, normalized to GAPDH mRNA
# [6] = tested on: adult human cardiac fibroblasts; assay: Anti-elastin immunostaining in adult cardiac fibroblasts; assay type: cell-based; settings: 1 to 50 nmol/L, 72 hours
# Description: as §2, with “Control cell cultures received an equal amount of the solvent vehicle. […] ScienCell (San Diego, Calif.). At” for “At”, “-20°” for “−20°”, “(for elastin staining) or in 4% paraformaldehyde at room temperature (for collagen staining) for 30 minutes and blocked with 1% normal goat serum for 1 hour at room temperature.” left out, “E1000” left out
# [7] = tested on: human fetal cardiac fibroblasts; assay: Quantitative assay of [3H]valine-labeled immunoprecipitable tropoelastin; assay type: cell-based; settings: 1 to 50 nmol/L, 72 hours, vs untreated
# Description: Fetal human cardiac fibroblasts were grown to confluence in 35-mm culture dishes (100,000 cells/dish) in quadruplicate. […] Cultures were incubated for 72 hours, and the soluble and insoluble elastin were assessed separately in each dish. The cells were extensively washed with phosphate-buffered saline, and the soluble proteins present in the intracellular compartments were extracted overnight at 4° C. with 0.1 mol/L acetic acid in the presence of proteinase inhibitors. After centrifugation, the supernatants were precleaned by 30-minute incubation with 50 μl of 4% protein A-beaded agarose, and then 500 μl of the supernatant was incubated with 5 μg of polyclonal antibody to tropoelastin for 2 hours and subsequently with 50 μl of 4% protein A-beaded agarose for 3 hours at 4° C. The protein A-containing beads were sedimented by centrifugation, washed with immunoprecipitation buffer, mixed with scintillation fluid, and counted. […] The resulting pellets containing the insoluble elastin were then solubilized by boiling in 200 μl of 5.7 N HCl for 1 hour, and the aliquots were mixed in scintillation fluid and counted. […] Final results reflecting amounts of metabolically labeled insoluble elastin in individual cultures were normalized per their DNA content and expressed as counts per minute per 1 μg of DNA.
# Gα13 and c-Src = assay: Co-immunoprecipitation of Gα13 and c-Src; assay type: cell-based, human
# [8] = tested on: human fetal cardiac fibroblasts; assay: One-step RT-PCR of collagen type I mRNA in cardiac fibroblast cultures; assay type: cell-based; settings: 1 to 50 nmol/L, 24 hours, normalized to GAPDH mRNA, vs untreated control
# [9] = tested on: human fetal cardiac fibroblasts; assay: Immunostaining of collagen type I fibers in confluent cultures; assay type: cell-based; settings: 1 to 50 nmol/L, 72 hours
# [10] = tested on: rat myocardial infarction model; assay: Rat myocardial infarction model, postinfarction scar; assay type: in vivo; settings: treated during the postinfarction period, vs vehicle-treated animals
# [11] = 10 μM PP2 1 hour preincubation or 72 hour Gα13 siRNA transfection
# [12] = 50 nM aldosterone, 30 minutes to 16 hours
smiles,measurement,setting,value
CC(C)(C)n1nc(-c2ccc(Cl)cc2)c2c(N)ncnc21 [PP2],effect on aldosterone-induced increase in phosphorylation of Akt,Akt; [11],is indeed eliminated; also recorded: eliminates this effect
same,effect on aldosterone-induced c-Src phosphorylation,c-Src; [11],abolished this effect
same,effect on aldosterone-induced upregulation in elastic fiber production,[1],abolished an increase in elastin mRNA levels and the consequent upregulation in elastic fiber production
same,effect on aldosterone-induced increase in elastin mRNA levels,"[2]; agent added 1 hour (CT04 2 hours) before aldosterone, 24 hours",abolished an increase in elastin mRNA levels
same,effect on aldosterone-induced increase in insoluble elastin production,[3]; agent added 1 hour before aldosterone (50 nM or 1 to 50 nmol/L),eliminated the aldosterone-induced increase in the net deposition of insoluble elastin
C[C@]12CCC(=O)C=C1CC[C@@H]1[C@@H]2[C@@H](O)C[C@]2(C=O)[C@@H](C(=O)CO)CC[C@@H]12 [aldosterone],"IGF-IR tyrosine phosphorylation, aldosterone together with IGF-I vs IGF-I alone","IGF-IR; 50 nmol/L aldosterone with 10, 25 or 50 ng/ml IGF-I, serum-free, 10 minutes",exhibit higher levels of IGF-IR tyrosine phosphorylation than their respective counterparts treated with the same doses of IGF-I alone
same,tyrosine phosphorylation of the IGF-IR,"IGF-IR; 10-minute exposure, 10% fetal bovine serum, aldosterone or BSA-conjugate 50 nM, IGF-I 100 ng/ml",transient increase in tyrosine phosphorylation of the IGF-IR above basal level; also recorded: produced a transient increase in tyrosine phosphorylation of the IGF-IR in control cultures; also recorded: significant increase in tyrosine phosphorylation of IGF-IR over basal levels
same,"tyrosine phosphorylation of the IGF-IR, dependence on serum",IGF-IR; presence vs absence of fetal bovine serum,induced a similar effect only in the presence of serum
same,basal phosphorylation of Akt,"Akt; 50 nM aldosterone, 10 minutes",significant increase in the basal phosphorylation of Akt
same,cytotoxic effects,[4],did not produce any cytotoxic effects
same,phosphorylation of c-Src on Tyr416,"c-Src; 50 nM aldosterone, 10 minutes",increased phosphorylation of c-Src on Tyr416; also recorded: leading to activation of c-Src
same,"elastin mRNA transcript levels, adult cardiac fibroblasts",[5],dose-dependently increased elastin mRNA transcript levels
same,"number of immunodetectable elastic fibers, adult cardiac fibroblasts",[6],significantly increased the number of immunodetectable elastic fibers
same,time at which tropoelastin mRNA begins to significantly increase,[2]; [12],1 h
same,time of maximum tropoelastin mRNA level,[2]; [12],3 to 6 h
same,elastin mRNA transcript levels,"[2]; 1 to 50 nmol/L, 24 hours, normalized to GAPDH mRNA, vs untreated control","heightened elastin mRNA levels, in a dose-dependent manner; also recorded: dose-dependently increased elastin mRNA transcript levels"
same,[3H]valine incorporation into insoluble elastin,"[3]; 1 to 50 nmol/L, vs untreated",proportional increase; also recorded: incorporate significantly more [^3H]valine into extracellular insoluble elastin
same,[3H]valine-labeled tropoelastin,[7],proportional increase; also recorded: up to approximately three times more
same,time at which the Gα13/c-Src interaction was most evident,"Gα13 and c-Src; 50 nM aldosterone for 1, 5 or 10 minutes",5 min
same,interaction between c-Src and Gα13,Gα13 and c-Src; vs untreated controls,increases the interaction between Gα13 and c-Src
same,collagen type I mRNA transcript levels,[8],significant increase in the steady-state level of collagen type I mRNA; also recorded: significantly increased collagen type I mRNA transcript levels
same,deposition of collagen fibers,[9],subsequent deposition of collagen fibers
COC(=O)[C@@H]1CC2=CC(=O)CC[C@]2(C)[C@@]23O[C@@H]2C[C@@]2(C)[C@@H](CC[C@@]24CCC(=O)O4)[C@H]13 [eplerenone],postinfarction scar composition,[10],produced scars with abundant elastic fibers

# From patent publication US9283236B2 (HUMAN MATRIX SCIENCES, LLC, priority 2008, dated 2016)
